Data taken from PubChem BioAssay (NCI).
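A five-concentration, 48-hour dose response in 96-well plates underlies each endpoint, interpolated linearly between surrounding concentrations. At the TGI there is no net growth.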

Experiments:
Assay in all cases: NCI-60 cell line screen, 48 h
KM12 colon = system: KM12 colon
SK-MEL-5 melanoma = system: SK-MEL-5 melanoma
A549 NSCLC = system: A549 NSCLC
MDA-MB-435 = system: MDA-MB-435
OVCAR-5 ovarian = system: OVCAR-5 ovarian
HCT-116 colon = system: HCT-116 colon
UACC-257 melanoma = system: UACC-257 melanoma
OVCAR-8 ovarian = system: OVCAR-8 ovarian
NCI-H460 lung = system: NCI-H460 lung
HOP-62 NSCLC = system: HOP-62 NSCLC
A498 renal = system: A498 renal
UO-31 renal = system: UO-31 renal
SF-295 CNS = system: SF-295 CNS
LOX IMVI melanoma = system: LOX IMVI melanoma
IGROV1 ovarian = system: IGROV1 ovarian
SW-620 colon = system: SW-620 colon
SK-MEL-28 melanoma = system: SK-MEL-28 melanoma
K-562 leukemia = system: K-562 leukemia
SN12C renal = system: SN12C renal
MDA-MB-231 breast = system: MDA-MB-231 breast
M14 melanoma = system: M14 melanoma
SNB-75 CNS = system: SNB-75 CNS
UACC-62 melanoma = system: UACC-62 melanoma
SR leukemia = system: SR leukemia
OVCAR-3 ovarian = system: OVCAR-3 ovarian
SK-MEL-2 melanoma = system: SK-MEL-2 melanoma
MOLT-4 leukemia = system: MOLT-4 leukemia
EKVX NSCLC = system: EKVX NSCLC
U251 CNS = system: U251 CNS
786-0 renal = system: 786-0 renal
DU-145 prostate = system: DU-145 prostate
NCI/ADR-RES ovarian = system: NCI/ADR-RES ovarian
CCRF-CEM leukemia = system: CCRF-CEM leukemia
SF-539 CNS = system: SF-539 CNS
BT-549 breast = system: BT-549 breast
ACHN renal = system: ACHN renal
HCT-15 colon = system: HCT-15 colon
CAKI-1 renal = system: CAKI-1 renal
HOP-92 NSCLC = system: HOP-92 NSCLC
NCI-H23 lung = system: NCI-H23 lung
SNB-19 CNS = system: SNB-19 CNS
RXF 393 renal = system: RXF 393 renal
MCF7 breast = system: MCF7 breast
HCC-2998 colon = system: HCC-2998 colon
OVCAR-4 ovarian = system: OVCAR-4 ovarian
PC-3 prostate = system: PC-3 prostate
T-47D breast = system: T-47D breast
NCI-H226 lung = system: NCI-H226 lung
RPMI-8226 leukemia = system: RPMI-8226 leukemia
COLO 205 colon = system: COLO 205 colon

For `CSC12c3cc(C)n(-c4ccccc4)c3CC(C)(C)CN1C(=O)C2Oc1ccccc1` (stereo not given), the TGI (KM12 colon) was > 100 µM, the TGI (SK-MEL-5 melanoma) was > 100 µM and the TGI (A549 NSCLC) was 86.4 µM. For the same compound, the TGI (MDA-MB-435) was > 100 µM, the TGI (OVCAR-5 ovarian) was > 100 µM and the TGI (HCT-116 colon) was > 100 µM. The TGI (UACC-257 melanoma) was > 100 µM, the TGI (OVCAR-8 ovarian) was > 100 µM and the TGI (NCI-H460 lung) was > 100 µM. The TGI (HOP-62 NSCLC) was > 100 µM, the TGI (A498 renal) was > 100 µM and the TGI (UO-31 renal) was > 100 µM. The TGI (SF-295 CNS) was > 100 µM, the TGI (LOX IMVI melanoma) was > 100 µM and the TGI (IGROV1 ovarian) was > 100 µM. The TGI (SW-620 colon) was > 100 µM, the TGI (SK-MEL-28 melanoma) was > 100 µM and the TGI (K-562 leukemia) was > 100 µM. The TGI (SN12C renal) was > 100 µM, the TGI (MDA-MB-231 breast) was > 100 µM and the TGI (M14 melanoma) was > 100 µM. The TGI (SNB-75 CNS) was > 100 µM, the TGI (UACC-62 melanoma) was > 100 µM and the TGI (SR leukemia) was > 100 µM. The TGI (OVCAR-3 ovarian) was > 100 µM, the TGI (SK-MEL-2 melanoma) was > 100 µM and the TGI (MOLT-4 leukemia) was > 100 µM. For the same compound, the TGI (EKVX NSCLC) was > 100 µM, the TGI (U251 CNS) was > 100 µM and the TGI (786-0 renal) was > 100 µM. For the same compound, the TGI (DU-145 prostate) was > 100 µM, the TGI (NCI/ADR-RES ovarian) was > 100 µM and the TGI (CCRF-CEM leukemia) was > 100 µM. The TGI (SF-539 CNS) was > 100 µM, the TGI (BT-549 breast) was > 100 µM and the TGI (ACHN renal) was > 100 µM. The TGI (HCT-15 colon) was > 100 µM, the TGI (CAKI-1 renal) was > 100 µM and the TGI (HOP-92 NSCLC) was > 100 µM. The TGI (NCI-H23 lung) was > 100 µM, the TGI (SNB-19 CNS) was > 100 µM and the TGI (RXF 393 renal) was > 100 µM. The TGI (MCF7 breast) was > 100 µM, the TGI (HCC-2998 colon) was > 100 µM and the TGI (OVCAR-4 ovarian) was > 100 µM. For the same compound, the TGI (PC-3 prostate) was > 100 µM, the TGI (T-47D breast) was > 100 µM and the TGI (NCI-H226 lung) was > 100 µM. The TGI (RPMI-8226 leukemia) was > 100 µM and the TGI (COLO 205 colon) was > 100 µM.
